# Test results: US11274083B2, “Substituted thiophenyl uracils, salts thereof and the use thereof as herbicidal agents” (Syngenta Crop Protection AG, priority 2017, dated 2022)
# What was measured:
# Type in all cases: in vivo
# [1] = test system: Digitaria sanguinalis; assay: Herbicidal action post-emergence, greenhouse pot test; settings: application rate 20 g/ha
# [2] = test system: Matricaria inodora; assay: as above
# Summary of the method: (§1)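 Weeds were sown in sandy loam and grown in a greenhouse for 2 to 3 weeks, then sprayed at the one-leaf stage with WP or EC formulations plus 0.5% additive at 600 L/ha water, at 80 g/ha or lower. Efficacy was scored visually about 3 weeks later against untreated controls.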
# [3] = test system: Abutilon theophrasti; assay: as above
# Summary of the method: as §1
# [4] = test system: Setaria viridis; assay: as above
# Summary of the method: as §1
# [5] = test system: Echinochloa crus-galli; assay: as above
# Summary of the method: as §1
# [6] = test system: Pharbitis purpurea; assay: as above
# Summary of the method: as §1
# [7] = test system: Polygonum convolvulus; assay: as above
# Summary of the method: as §1
# [8] = test system: Amaranthus retroflexus; assay: as above
# Summary of the method: as §1
# [9] = test system: Stellaria media; assay: as above
# Summary of the method: as §1
# [10] = test system: Alopecurus myosuroides; assay: as above; settings: scored visually after about 3 weeks vs untreated controls
# Summary of the method: as §1
# [11] = test system: Viola tricolor; assay: as above
# Summary of the method: as §1
# [12] = test system: Hordeum murinum; assay: as above
# Summary of the method: as §1
# [13] = test system: Avena fatua; assay: as above; settings: application rate 20 g/ha
# Summary of the method: as §1
# [14] = test system: Lolium rigidum; assay: as above
# Summary of the method: as §1
# [15] = test system: Veronica persica; assay: as above
# Summary of the method: as §1
# [16] = test system: Zea mays; assay: Crop compatibility post-emergence, greenhouse pot test
# Summary of the method: (§2)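 Greenhouse post-emergence spray at one-leaf stage, 600 L/ha with 0.5% additive. Injury was assessed visually after about 3 weeks as % of untreated control.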
# [17] = test system: Oryza sativa; assay: as above
# Summary of the method: as §2
# [18] = test system: Abutilon theophrasti; assay: Herbicidal action pre-emergence, greenhouse pot test
# Summary of the method: (§3)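 Seeds were sown in pots and covered with soil, then compounds formulated as WP or EC were sprayed onto the soil surface as aqueous suspension or emulsion with 0.5% additive at 600 L/ha water, 320 g/ha or lower. After about 3 weeks in the greenhouse, efficacy was scored visually as % versus untreated controls.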
# [19] = test system: Setaria viridis; assay: as above
# Summary of the method: as §3
# [20] = test system: Echinochloa crus-galli; assay: as above; settings: application rate 320 g/ha
# Summary of the method: as §3
# [21] = test system: Pharbitis purpurea; assay: as above
# Summary of the method: as §3
# [22] = test system: Polygonum convolvulus; assay: as above
# Summary of the method: as §3
# [23] = test system: Amaranthus retroflexus; assay: as above
# Summary of the method: as §3
# [24] = test system: Stellaria media; assay: as above
# Summary of the method: as §3
# [25] = test system: Alopecurus myosuroides; assay: as above; settings: application rate 320 g/ha
# Summary of the method: as §3
# [26] = test system: Viola tricolor; assay: as above
# Summary of the method: as §3
# [27] = test system: Hordeum murinum; assay: as above; settings: application rate 320 g/ha
# Summary of the method: as §3
# [28] = test system: Avena fatua; assay: as above; settings: application rate 320 g/ha
# Summary of the method: as §3
# [29] = test system: Lolium rigidum; assay: as above
# Summary of the method: as §3
# [30] = test system: Veronica persica; assay: as above
# Summary of the method: as §3
# [31] = test system: Matricaria inodora; assay: as above
# [32] = test system: Cyperus esculentus; assay: as above; settings: application rate 320 g/ha
# Summary of the method: as §3
# [33] = test system: Triticum aestivum; assay: Crop compatibility post-emergence, greenhouse pot test; settings: application rate 5 g/ha
# Summary of the method: as §2
Structure (SMILES),Matricaria inodora (Efficacy in %) ([2]; application rate 20 g/ha) [%],Setaria viridis (Efficacy in %) ([4]; application rate 20 g/ha) [%],Polygonum convolvulus (Efficacy in %) ([7]; application rate 20 g/ha) [%],Amaranthus retroflexus (Efficacy in %) ([8]; application rate 20 g/ha) [%],Stellaria media (Efficacy in %) ([9]; application rate 20 g/ha) [%],Hordeum murinum (Efficacy in %) ([12]; application rate 20 g/ha) [%],Abutilon theophrasti (Efficacy in %) ([3]; application rate 80 g/ha) [%],Echinochloa crus-galli (Efficacy in %) ([5]; application rate 80 g/ha) [%],Pharbitis purpurea (Efficacy in %) ([6]; application rate 80 g/ha) [%],Polygonum convolvulus (Efficacy in %) ([7]; application rate 80 g/ha) [%],Stellaria media (Efficacy in %) ([9]; application rate 80 g/ha) [%],Alopecurus myosuroides (Efficacy in %) ([10]; application rate 80 g/ha) [%],Viola tricolor (Efficacy in %) ([11]; application rate 80 g/ha) [%],Hordeum murinum (Efficacy in %) ([12]; application rate 80 g/ha) [%],Lolium rigidum (Efficacy in %) ([14]; application rate 80 g/ha) [%],Veronica persica (Efficacy in %) ([15]; application rate 80 g/ha) [%],Echinochloa crus-galli (Efficacy in %) [20] [%],Alopecurus myosuroides (Efficacy in %) [25] [%],Hordeum murinum (Efficacy in %) [27] [%],Avena fatua (Efficacy in %) [28] [%],further results
CC(Sc1cc(-n2c(=O)cc(C(F)(F)F)n(C)c2=O)c(F)cc1Cl)C(=O)OC1COC(=O)C1 (stereo not shown) [I.1-144],100,100,100,100,80,80,,,,,,,,,,,,,,,Digitaria sanguinalis (Efficacy in %) [1]: 80%; Abutilon theophrasti (Efficacy in %) ([3]; application rate 20 g/ha): 100%; Echinochloa crus-galli (Efficacy in %) ([5]; application rate 20 g/ha): 100%; Pharbitis purpurea (Efficacy in %) ([6]; application rate 20 g/ha): 100%; Alopecurus myosuroides (Efficacy in %) ([10]; application rate 20 g/ha): 80%; Viola tricolor (Efficacy in %) ([11]; application rate 20 g/ha): 100%; Avena fatua (Efficacy in %) [13]: 100%; Lolium rigidum (Efficacy in %) ([14]; application rate 20 g/ha): 100%; Veronica persica (Efficacy in %) ([15]; application rate 20 g/ha): 100%; Zea mays (Efficacy in %) ([16]; application rate 5 g/ha): 10%; Oryza sativa (Efficacy in %) ([17]; application rate 5 g/ha): 20%
CC(C)NC(=O)COC(=O)C(C)Sc1cc(-n2c(=O)cc(C(F)(F)F)n(C)c2=O)c(F)cc1Cl (stereo not shown) [I.1-184],,100,,,,,100,100,100,100,100,80,100,80,100,100,100,90,90,90,Matricaria inodora (Efficacy in %) ([2]; application rate 80 g/ha): 100%; Amaranthus retroflexus (Efficacy in %) ([8]; application rate 80 g/ha): 100%; Zea mays (Efficacy in %) ([16]; application rate 20 g/ha): 20%; Abutilon theophrasti (Efficacy in %) ([18]; application rate 80 g/ha): 100%; Setaria viridis (Efficacy in %) ([19]; application rate 80 g/ha): 100%; Pharbitis purpurea (Efficacy in %) ([21]; application rate 80 g/ha): 100%; Polygonum convolvulus (Efficacy in %) ([22]; application rate 80 g/ha): 100%; Amaranthus retroflexus (Efficacy in %) ([23]; application rate 80 g/ha): 100%; Stellaria media (Efficacy in %) ([24]; application rate 80 g/ha): 100%; Viola tricolor (Efficacy in %) ([26]; application rate 80 g/ha): 100%; Lolium rigidum (Efficacy in %) ([29]; application rate 320 g/ha): 100%; Veronica persica (Efficacy in %) ([30]; application rate 80 g/ha): 100%; Matricaria inodora (Efficacy in %) ([31]; application rate 80 g/ha): 100%
COC(=O)CCOC(=O)CSc1cc(-n2c(=O)cc(C(F)(F)F)n(C)c2=O)c(F)cc1Cl [I.8-2],100,,100,100,100,80,100,100,100,,,80,100,,90,100,100,80,80,80,Setaria viridis (Efficacy in %) ([4]; application rate 80 g/ha): 100%; Abutilon theophrasti (Efficacy in %) ([18]; application rate 320 g/ha): 100%; Setaria viridis (Efficacy in %) ([19]; application rate 320 g/ha): 100%; Cyperus esculentus (Efficacy in %) [32]: 90%; Pharbitis purpurea (Efficacy in %) ([21]; application rate 320 g/ha): 100%; Polygonum convolvulus (Efficacy in %) ([22]; application rate 320 g/ha): 100%; Amaranthus retroflexus (Efficacy in %) ([23]; application rate 20 g/ha): 100%; Stellaria media (Efficacy in %) ([24]; application rate 320 g/ha): 100%; Viola tricolor (Efficacy in %) ([26]; application rate 320 g/ha): 100%; Lolium rigidum (Efficacy in %) ([29]; application rate 80 g/ha): 90%; Veronica persica (Efficacy in %) ([30]; application rate 80 g/ha): 100%; Matricaria inodora (Efficacy in %) ([31]; application rate 320 g/ha): 100%
COC(=O)COC(=O)CSc1cc(-n2c(=O)cc(C(F)(F)F)n(C)c2=O)c(F)cc1Cl [I.8-42],100,,,100,,,100,100,100,100,100,,100,80,,100,100,,80,80,Setaria viridis (Efficacy in %) ([4]; application rate 80 g/ha): 100%; Triticum aestivum (Efficacy in %) [33]: 20%; Oryza sativa (Efficacy in %) ([17]; application rate 20 g/ha): 0%; Abutilon theophrasti (Efficacy in %) ([18]; application rate 320 g/ha): 100%; Setaria viridis (Efficacy in %) ([19]; application rate 320 g/ha): 100%; Cyperus esculentus (Efficacy in %) [32]: 100%; Pharbitis purpurea (Efficacy in %) ([21]; application rate 320 g/ha): 100%; Polygonum convolvulus (Efficacy in %) ([22]; application rate 320 g/ha): 100%; Amaranthus retroflexus (Efficacy in %) ([23]; application rate 20 g/ha): 100%; Stellaria media (Efficacy in %) ([24]; application rate 320 g/ha): 100%; Viola tricolor (Efficacy in %) ([26]; application rate 320 g/ha): 100%; Lolium rigidum (Efficacy in %) ([29]; application rate 320 g/ha): 80%; Veronica persica (Efficacy in %) ([30]; application rate 320 g/ha): 100%; Matricaria inodora (Efficacy in %) ([31]; application rate 320 g/ha): 100%
